The values that follow come from patent publication US7078414B2, “Derivatives of 3-guanidinocarbonyl-1-heteroaryl-pyrrole, preparation process and intermediates of this process, their use as medicaments, and pharmaceutical compositions comprising them” (Sanofi-Aventis Deutschland GmbH, priority 2002, dated 2006).

The target of series [1] is T1, NHE-1 subtype (Homo sapiens, UniProt P19634).
T1 construct: expressed in transfected cells; host or cells: LAP-1 cells (parental line has no endogenous NHE activity), stably transfected and kept under G418 selection
T1 sequence (P19634 whole entry): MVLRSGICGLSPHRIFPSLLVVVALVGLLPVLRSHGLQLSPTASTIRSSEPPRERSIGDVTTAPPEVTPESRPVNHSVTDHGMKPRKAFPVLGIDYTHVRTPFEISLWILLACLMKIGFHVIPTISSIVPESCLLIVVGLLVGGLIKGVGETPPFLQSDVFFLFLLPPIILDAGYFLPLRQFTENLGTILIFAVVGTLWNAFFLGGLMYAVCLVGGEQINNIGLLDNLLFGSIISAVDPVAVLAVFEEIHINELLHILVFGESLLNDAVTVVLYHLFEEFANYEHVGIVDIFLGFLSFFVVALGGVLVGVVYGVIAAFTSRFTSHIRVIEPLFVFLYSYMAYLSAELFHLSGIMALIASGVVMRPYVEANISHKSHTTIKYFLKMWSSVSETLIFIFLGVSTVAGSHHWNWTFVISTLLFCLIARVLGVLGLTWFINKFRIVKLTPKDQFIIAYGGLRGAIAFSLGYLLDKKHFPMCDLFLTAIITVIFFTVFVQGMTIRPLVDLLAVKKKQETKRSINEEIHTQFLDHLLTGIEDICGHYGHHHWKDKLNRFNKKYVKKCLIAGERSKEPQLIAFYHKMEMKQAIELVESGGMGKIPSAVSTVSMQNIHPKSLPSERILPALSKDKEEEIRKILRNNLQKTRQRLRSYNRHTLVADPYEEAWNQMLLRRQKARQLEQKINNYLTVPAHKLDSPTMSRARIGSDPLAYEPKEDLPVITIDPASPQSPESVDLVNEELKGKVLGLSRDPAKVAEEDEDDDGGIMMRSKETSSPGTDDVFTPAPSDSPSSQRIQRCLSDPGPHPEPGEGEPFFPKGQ
The series can be described thus: NHE inhibition FLIPR test (intracellular pH recovery, BCECF) in transfected LAP-1 cell lines expressing NHE subtypes. The format is cell-based. As to conditions: transfected LAP-1 cells expressing NHE-1 subtype, read-out: IC50 (NHE1). The method, then: The NHE inhibitory activities (IC50 values) of the compounds according to the invention were determined by a FLIPR test.
The test is performed in the FLIPR (Fluorescent Imaging Plate Reader) equipped with clear-bottomed and black-walled 96-well microtitration plates.
The growth medium for the transfected cells (Iscove +10% foetal calf serum) also comprises G418 as selection antibiotic to ensure the presence of transfected sequences.
The actual test begins by eliminating the growth medium and adding 100 μl of loading buffer per well (5 μM of BCECF-AM [2′,7′-bis(2-carboxyethyl)-5-(6)-carboxyfluoresceine acetoxymethyl ester] in 20 mM of NH4Cl, 115 mM of choline chloride, 1 mM of CaCl2, 5 mM of KCl, 20 mM of HEPES and 5 mM of glucose; pH 7.4 (adjusted with KOH). The cells are then incubated for 20 minutes at 37° C. This incubation results in the loading of the fluorescent dye into the cells, the fluorescence intensity of which depends on the pHi, and on the NH4Cl, which results in a slight basification of the cells.
The precursor BCECF-AM, a non-fluorescent dye, is, as an ester, capable of crossing the membrane. The actual dye, which is incapable of crossing the membrane, is released inside the cell by esterases.
After this 20-minute incubation, the loading buffer, which comprises NH4Cl and free BCECF-AM, is removed by washing three times in the cell washing device (Tecan Columbus), each wash being performed with 400 μL of washing buffer (133.8 mM of choline chloride, 4.7 mM of KCl, 1.25 mM of MgCl2, 1.25 mM of CaCl2, 0.97 mM of K2HPO4, 0.23 mM of KH2PO4, 5 mM of HEPES and 5 mM of glucose; pH 7.4 (adjusted with KOH)). The residual volume remaining in the wells is 90 μL (possibly between 50 and 125 μL). This washing step removes the free BCECF-AM and results in an intracellular acidification (pHi of 6.3–6.4) due to the removal of the external ammonium ions.
As the equilibrium of the intracellular ammonium with the aqueous ammonia and the protons, by removal of the extracellular ammonium and by the subsequent immediate crossing of the aqueous ammonia across the cell membrane, is disrupted, the washing process results in intracellular protons remaining, which is the cause of the intracellular acidification. This acidification can result finally in the death of the cells if it lasts long enough. It is important here for the washing buffer to be free of sodium (<1 mM), otherwise the extracellular sodium ions would result in an immediate increase in the pHi on account of the activity of the cloned NHE isoforms. It is also important for all the buffers used (loading buffer, washing buffer and regeneration buffer) not to contain any HCO3-ions, otherwise the presence of bicarbonate would result in the activation of bicarbonate-dependent systems that disrupt the pHi regulation, which systems are contained in the LAP-1 parental cell line.
The microtiter plates containing acidified cells are then transferred (up to 20 minutes after the acidification) to the FLIPR. In the FLIPR, the intracellular fluorescent dye is activated with light of a wavelength of 488 nm, which is generated by an argon laser, and the measuring parameters (laser power, illumination time and diaphragm of the […] camera integrated into the FLIPR) are chosen such that the average value of the f fluorescent signal per well is between 30,000 and 35,000 relative fluorescence units.
The actual measurement in the FLIPR starts with a photograph being taken by the CCD camera every two seconds under software control. After 10 seconds, the increase in the intracellular pH is initiated by adding 90 μL of regeneration buffer (133.8 mM of NaCl, 4.7 mM of KCl, 1.25 mM of MgCl2, 1.25 mM of CaCl2, 0.97 mM of K2HPO4, 0.23 mM of KH2PO4, 10 mM of HEPES and 5 mM of glucose; pH 7.4 (adjusted with NaOH)) using a 96-well pipette device incorporated into the FLIPR.
Some wells, to which is added pure regeneration buffer, serve as positive controls (100% NHE activity). […]

For orientation: melting point means the temperature of the solid-liquid transition. A word on the IC50: it is the concentration that inhibits the measured activity by half.

As for `Cc1cn(-c2ccnc3ccccc23)cc1C(=O)NC(=N)N` [Example 9, 3-Guanidinocarbonyl-4-methyl-1-(quinol-4-yl)-1H-pyrrole], the melting point came out at 215 °C. Also, the IC50 in series [1] stood at 0.25 nM.

`Cl.NC(N)=NC(=O)c1ccn(-c2ccc3ccccc3n2)c1` [Example 1, 3-Guanidinocarbonyl-1-(quinol-2-yl)-1H-pyrrole hydrochloride]: the melting point was 258 °C. Further, in series [1], the IC50 came to 49 nM.
